Results as given in PubChem BioAssay AID190 (DTP/NCI, 2004).
Several values for one entry are separate records, joined by “and”; a condition that tells them apart may be missing. Equal values may be shown once. Inconclusive results and toxic doses are left out. The calls were made as follows: active = survival T/C of 150% or more; inactive = T/C below 125% in these data.

Test system: AKR/Lw mice, AKR lymphoma ip, median survival T/C
Assay: NCI In Vivo Anticancer Drug Screen. Data for tumor model Lymphoma AKR (Transplanted) (intraperitoneal) in AKR/Lw mice
Conditions: endpoint: median survival time, higher = longer survival
Protocol: The antitumor activity of compounds was measured in mice bearing transplantable tumors. Survival or tumor size were measured and the results are expressed as the measurement made in the treated group (T) divided by the measurement made in the vehicle treated control group (C). The tumor model used in this assay is Lymphoma AKR (Transplanted) (intraperitoneal) in AKR/Lw mice

[1] = dose: 100.0 mg/kg/injection, schedule: Q01DX001 (ip), vehicle: Klucel (hydroxypropylcellulose) (HPC)
[2] = dose: 200.0 mg/kg/injection, schedule: Q01DX001 (ip), vehicle: Klucel (hydroxypropylcellulose) (HPC)
[3] = dose: 25.0 mg/kg/injection, schedule: Q01DX001 (ip), vehicle: saline
[4] = dose: 25.0 mg/kg/injection, schedule: Q04DX003 (ip), vehicle: saline
[5] = dose: 400.0 mg/kg/injection, schedule: Q01DX001 (ip), vehicle: Klucel (hydroxypropylcellulose) (HPC)

Measured: T/C

C=CCN(CC=C)c1ccc(N(CC)CC)cc1
inactive: dose: 25.0 mg/kg/injection, schedule: Q04DX003 (ip), vehicle: Klucel (hydroxypropylcellulose) (HPC) 100 % of control | dose: 50.0 mg/kg/injection, schedule: Q04DX003 (ip), vehicle: Klucel (hydroxypropylcellulose) (HPC) 94 % of control | [1] 96 % of control | dose: 100.0 mg/kg/injection, schedule: Q04DX003 (ip), vehicle: Klucel (hydroxypropylcellulose) (HPC) 97 % of control | [2] 92 % of control | dose: 200.0 mg/kg/injection, schedule: Q04DX003 (ip), vehicle: Klucel (hydroxypropylcellulose) (HPC) 100 % of control

COc1ccccc1N1C(N)=NC(N)=NC1(C)C
inactive: dose: 11.0 mg/kg/injection, schedule: Q01DX001 (ip), vehicle: saline 109 % of control | dose: 11.0 mg/kg/injection, schedule: Q04DX003 (ip), vehicle: saline 91 % of control | dose: 16.0 mg/kg/injection, schedule: Q01DX001 (ip), vehicle: saline 88 % of control | [3] 113 % of control | [4] 102 % of control | dose: 37.5 mg/kg/injection, schedule: Q01DX001 (ip), vehicle: saline 102 % of control | dose: 37.5 mg/kg/injection, schedule: Q04DX003 (ip), vehicle: saline 88 % of control | dose: 100.0 mg/kg/injection, schedule: Q01DX001 (ip), vehicle: saline 90 % of control

COc1ccc(COC(=O)CN2C(=O)c3ccccc3C2=O)cc1
inactive: [1] 97 % of control | [2] 100 % of control | [5] 113 % of control

CCOC(=O)/C(C(C)=O)=C(/O)c1ccc(OC(F)(F)C(F)Cl)cc1OC(F)(F)C(F)Cl.CCOC(=O)/C(C(C)=O)=C(/O)c1ccc(OC(F)(F)C(F)Cl)cc1OC(F)(F)C(F)Cl.[Cu] (centres undefined)
inactive: [1] 100 % of control | [2] 90 % of control

O=C(/C=C/c1cccc([N+](=O)[O-])c1)NCCBr
inactive: [1] 102 % of control | [2] 104 % of control | [5] 86 % of control

O=c1cc(-c2ccccc2)nc(Nc2nc3ccc([N+](=O)[O-])cc3[nH]2)[nH]1
inactive: [1] 96 % of control | [2] 110 % of control | [5] 96 % of control

CC(C)c1ccc(C(c2c(O)c3ccccc3oc2=O)c2c(O)c3ccccc3oc2=O)cc1
inactive: [1] 113 % of control | [2] 106 % of control | [5] 90 % of control

C[C@]12CCC(=O)C=C1CC[C@@H]1[C@@H]2[C@@H](O)C[C@@]2(C)[C@H]1CC[C@]2(O)C(=O)CO
inactive: dose: 5.0 mg/kg/injection, schedule: Q01DX005 (sc), vehicle: steriod suspending solution 117 % of control | dose: 10.0 mg/kg/injection, schedule: Q01DX005 (sc), vehicle: steriod suspending solution 106 % of control | dose: 20.0 mg/kg/injection, schedule: Q01DX005 (sc), vehicle: steriod suspending solution 106 % of control | dose: 25.0 mg/kg/injection, schedule: Q01DX005 (sc), vehicle: steriod suspending solution 94 % of control | dose: 50.0 mg/kg/injection, schedule: Q01DX005 (sc), vehicle: steriod suspending solution 107 % of control

CN(C)CCCNC(=O)Nc1ccccc1
inactive: [1] 103 % of control | [2] 93 % of control

S=P(N1CC1)(N1CC1)N1CC1
inactive: dose: 0.1 mg/kg/injection, schedule: Q01DX009 (ip), vehicle: saline 110 % of control | dose: 0.25 mg/kg/injection, schedule: Q01DX009 (ip), vehicle: saline 87 % of control | dose: 0.5 mg/kg/injection, schedule: Q01DX009 (ip), vehicle: saline 90 % of control | dose: 0.5 mg/kg/injection, schedule: Q04DX003 (ip), vehicle: saline 117 % of control | dose: 1.0 mg/kg/injection, schedule: Q01DX009 (ip), vehicle: saline 108 % of control and 112 % of control and 117 % of control | dose: 1.0 mg/kg/injection, schedule: Q04DX003 (ip), vehicle: saline 120 % of control | dose: 1.2 mg/kg/injection, schedule: Q04DX003 (ip), vehicle: saline 100 % of control | dose: 1.5 mg/kg/injection, schedule: Q01DX001 (ip), vehicle: saline 106 % of control | dose: 2.0 mg/kg/injection, schedule: Q01DX009 (ip), vehicle: saline 111 % of control | dose: 2.5 mg/kg/injection, schedule: Q01DX001 (ip), vehicle: saline 104 % of control | dose: 2.5 mg/kg/injection, schedule: Q04DX003 (ip), vehicle: saline 87 % of control and 112 % of control and 117 % of control | dose: 3.0 mg/kg/injection, schedule: Q01DX001 (ip), vehicle: saline 109 % of control | dose: 3.0 mg/kg/injection, schedule: Q04DX003 (ip), vehicle: saline 122 % of control | dose: 3.75 mg/kg/injection, schedule: Q01DX009 (ip), vehicle: saline 116 % of control | dose: 5.0 mg/kg/injection, schedule: Q01DX001 (ip), vehicle: saline 95 % of control and 100 % of control and 103 % of control | dose: 6.0 mg/kg/injection, schedule: Q01DX001 (ip), vehicle: saline 104 % of control and 106 % of control | dose: 6.2 mg/kg/injection, schedule: Q01DX001 (ip), vehicle: saline 118 % of control | dose: 6.25 mg/kg/injection, schedule: Q01DX001 (ip), vehicle: saline 123 % of control | dose: 7.5 mg/kg/injection, schedule: Q01DX001 (ip), vehicle: saline 102 % of control and 116 % of control | dose: 7.5 mg/kg/injection, schedule: Q01DX009 (ip), vehicle: saline 105 % of control | dose: 10.0 mg/kg/injection, schedule: Q01DX001 (ip), vehicle: saline 111 % of control | dose: 10.0 mg/kg/injection, schedule: Q04DX003 (ip), vehicle: saline 87 % of control | dose: 15.0 mg/kg/injection, schedule: Q01DX009 (ip), vehicle: saline 88 % of control | dose: 16.0 mg/kg/injection, schedule: Q04DX003 (ip), vehicle: saline 97 % of control | dose: 12.0 micrograms/kg/injection, schedule: Q01DX009 (ip), vehicle: saline 111 % of control | dose: 12.5 micrograms/kg/injection, schedule: Q01DX009 (ip), vehicle: saline 102 % of control | dose: 25.0 micrograms/kg/injection, schedule: Q01DX009 (ip), vehicle: saline 100 % of control and 111 % of control | dose: 50.0 micrograms/kg/injection, schedule: Q01DX009 (ip), vehicle: saline 105 % of control | dose: 100.0 micrograms/kg/injection, schedule: Q01DX009 (ip), vehicle: saline 94 % of control and 108 % of control | dose: 200.0 micrograms/kg/injection, schedule: Q01DX009 (ip), vehicle: saline 102 % of control

CCOC(=O)C1OC12CCCCC2 (centres undefined)
inactive: [1] 96 % of control | [2] 92 % of control | [5] 100 % of control

Cn1c(O)c(C=N)c(=O)n(C)c1=O
inactive: dose: 12.0 mg/kg/injection, schedule: Q01DX001 (ip), vehicle: saline 102 % of control | dose: 12.5 mg/kg/injection, schedule: Q04DX003 (ip), vehicle: saline 97 % of control | [3] 105 % of control | [4] 100 % of control | dose: 50.0 mg/kg/injection, schedule: Q01DX001 (ip), vehicle: saline 100 % of control | dose: 50.0 mg/kg/injection, schedule: Q04DX003 (ip), vehicle: saline 100 % of control
